Source: ChEMBL document CHEMBL3045281, “Design, synthesis, and biological evaluation of new 3-hydroxy-2-oxo-3-trifluoromethylindole as potential HIV-1 reverse transcriptase inhibitors” (Med Chem Res, 2006)

Tests used:
[1] = Cytotoxicity against Chlorocebus aethiops (African green monkey) Vero cells after 72 hr by trypan blue assay; format: cell-based; conditions: chlorocebus sabaeus
[2] = target: Human immunodeficiency virus type 1 reverse transcriptase (Human immunodeficiency virus 1, UniProt Q72547); experiment: Inhibition of RNA-dependent DNA polymerase activity of Human immunodeficiency virus 1 recombinant reverse transcriptase expressed in Escherichia coli using poly(rA)oligo(dT) template primer after 30 min

Structure (SMILES)	CC50 at 72 h [1]	IC50 [2]
O=C1Nc2ccc(Cl)cc2C1(O)C(F)(F)F (stereo not given)	> 700 µM	7.1 µM
CC(=O)N1C(=O)C(O)(C(F)(F)F)c2cc(Cl)ccc21 (stereo not given)	> 360 µM	3.41 µM
CN1C(=O)C(O)(C(F)(F)F)c2cc(Br)ccc21 (stereo not given)	> 250 µM	3.61 µM
CC(=O)N1C(=O)C(O)(C(F)(F)F)c2cc(C)ccc21 (stereo not given)	> 650 µM	8.37 µM
O=C1Nc2ccccc2C1(O)C(F)(F)F (stereo not given)	> 650 µM	6.07 µM
